Measurements as given in BigSolDB 2.1.

## O=C(/C=C/c1ccc(O)c(O)c1)O[C@H](Cc1ccc(O)c(O)c1)C(=O)O
In ethyl acetate, 293.15 K
  solubility (mole fraction): 0.0345
In ethyl acetate, 298.15 K
  solubility (mole fraction): 0.0466
In ethyl acetate, 303.15 K
  solubility (mole fraction): 0.0506
In ethyl acetate, 308.15 K
  solubility (mole fraction): 0.0588
In ethyl acetate, 313.15 K
  solubility (mole fraction): 0.0722
In methyl acetate, 293.15 K
  solubility (mole fraction): 0.0363
In methyl acetate, 298.15 K
  solubility (mole fraction): 0.049
In methyl acetate, 303.15 K
  solubility (mole fraction): 0.0533
In methyl acetate, 308.15 K
  solubility (mole fraction): 0.0619
In methyl acetate, 313.15 K
  solubility (mole fraction): 0.0764
